According to patent US8524193B2, “Non-invasive diagnostic imaging technology for mitochondria using radiolabeled lipophilic salts” (The Johns Hopkins University, priority 2002, dated 2013):
Values joined by “and” are separate entries in the source; they are usually repeats but may differ in a detail not shown here. Identical values can stand only once. Like-named read-outs stand apart in the source and are kept apart here. Each block holds one molecule with its values, some of them ahead of it.

Columns and labels:
[1] = cited from earlier work
[2] = test system: FCA-induced inflammation; experiment: Accumulation in FCA-induced inflammation tissue and healthy muscle; assay type: in vivo, rats; details: for Inf/Control: ratio inflammation tissue to healthy muscle, 3 days after FCA; for Accumulation, Control: rats, healthy muscle, 3 days after administration of FCA
Experimental: (§1) 0.1 ml of nitrosomethyl urea (NUM) was introduced i.p in female rats (150 g). When tumor reached an approximate size of 1 to 1.5 cm, FCA was injected (0.15 ml) to the hind limb footpad. Uptake assays were carried out 3 days thereafter. F-18-FBnTP (0.25 mCi) was injected via tail vein. Sixty minutes later tumor, inflamed tissue and healthy muscle tissue of the opposite limb (control) were collected on ice, weighed and counted in a gamma counter together with standards.
The accumulation of the novel F-18-phosphonium cations, F-18-FBnTP and F-18-fluoropropyl triphenyl phosphonium (F-18-FPTP) in comparison with F18-FDG in FCA-induced inflammation and healthy tissue is presented in Table 2. Induction of inflammation and activity counting were carried out as described above. Fluorophosphonium compounds accumulate in inflammation much less than FDG (Table 2). These date provide strong evidence to our claim that F-18-phosphonium compound are suitable for differentiation of tumor from inflammation and may resolve a major drawback of F-18-FDG. Table 2: Accumulation of Fluorophosphonium Compounds (FBnTP and FPTP) FDG in inflammation tissue and healthy muscle 3 days after administration of FCA.

[3] = C-11-TPMP uptake kinetics in the myocardium (PET); assay type: in vivo; details: dog, five-fold increase (by adenosine) in flow
Experimental: We have examined the performance of C-11-triphenyl phosphonium cation (TPMP) for assessing regional myocardial flow in dog using PET (Kraus, 1994).
Methods: Four mCi of C-11-TPMP were introduced i.v., and dynamic images of increasing duration (15 sec to 20 min) were acquired over a total time of 85 min. Images were acquired on the GE 4096+ PET scanner (15 slices, 6.5 mm slice thickness). Images were reconstructed using backprojection, and corrected for attenuation. A detailed description of methods appears in Kraus, 1994. These images show excellent visualization of the myocardium with a high contrast to the surrounding lung tissue. During the plateau time period heart/lung ratio was >14:1, and heart/blood >100:1. Under baseline conditions (flow=69 ml/min/100 g), the extraction fraction is very high (91%). […] To investigate the relationship between myocardial blood flow and C-11-TPMP uptake in the heart, the LAD was occluded and the C-11-TPMP accumulation in tissue samples compared to microsphere determined regional myocardial blood flow. A significant correlation (r=0.93, p<0.01) was found at 5 min after LAD occlusion (FIG. 12). The non-infracted/infracted myocardium ratio was 12.1±2.4. […] Thallium 201 extraction under baseline flow is about 80%, decreasing to about 60% for five-fold increases in flow rate. […]

[4] = test system: orthotopic NMU mammary tumor; experiment: Uptake in NMU mammary tumor versus healthy gland and FCA inflammation; assay type: in vivo; details: NMU-bearing female rats, 60 min after injection, normalized to muscle
From the text: The carcinogen nitrosomethyl urea (NMU) induces carcinoma tumors solely in the mammary gland of female rats. Therefore, the orthotopic NMU mammary tumor is an excellent model for evaluating tracer tumor selectivity by contrasting radioactivity accumulating in mammary gland infested with carcinoma cells and healthy mammary gland. Freund Complete Adjuvant (FCA) is a well_studied inflammation agent in rats Induction of FCA inflammation in NMU-bearing rats allows for direct quantitation of tracer capability to differentiate carcinoma from inflammation.
as §1

[5] = test system: Human lung carcinoma H549 cells; experiment: Mitochondria membrane potential (MMP)-dependent cellular uptake with CCCP; assay type: cell-based; details: CCCP 30, 60, 90, 120 μM, 30 min
Experimental: The extent of MMP-dependent cellular uptake of F-18-FBnTP was assessed using CCCP, a known protonophore that selectively abolishes the MMP.
Methods: Human lung carcinoma H549 cells ([…]) were incubated with 0.1 μCi/ml F-18-FBnTP for 30 min. Samples of the suspension (1 mL) were transferred to Eppendorf's vials and placed in a 370 C bath. Varying concentrations (30, 60, 90, 120 μM) of CCCP were added to the suspension. After 30 min of incubation with CCCP, the Eppendorf vials were centrifuged for 1 min, and activity in pellet and supernatant was immediately counted.

[6] = Stability of F-18-FBnTP in plasma after injection into mice (column switch HPLC); assay type: in vivo
Experimental: Radiochemical purity of F-18-FBnTP and its stability in vivo was measured by chromatography.
Samples of mouse plasma were obtained from heparinized whole bloodcollected 5, 15 and 30 min p.i. of the tracer. To eliminate binding to plasma proteins, the plasma was added to solid urea to give a final concentration of 8M urea. The plasma-urea was loaded into a column switch HPLC system (Hilton 2000), in which the plasma passes through a small capture column (Oasis Sorbent, Waters Corp.), which retains lipophilic solutes, while polar species fail to bind and are detected as they pass through a positron detector. After four minutes, the capture column is free of plasma proteins and polar species. Then, the contents of the capture column was swept onto an analytical column (Prodigy ODS-3, Phenomenex) by 40% acetonitrile, 60% triethylamine acetate buffer pH 4.1 at 1 mL/min, where separation of the parent compound and lipophilic metabolites occurs. The effluent from the analytical column also passes through the positron flow detector. The proportion of each species is determined from the area under each chromatographic peak. Results: Radiochemical purity of the 18F-labeled FBnTP was more than 95%. […] FIG. 1 depicts the chromatogram of plasma collected 30 min p.i., and the parental compound incubated for a similar time period (30 min) in buffered saline. […]

[7] = F-18-FBnTP uptake kinetics in the myocardium (PET); assay type: in vivo, Mongrel dogs; details: dog PET
Experimental: Methods: Mongrel dogs (BW=35 kg) were injected with 3-4 mCi of F-18-FBnTP. Images were acquired on a GE 4096+ scanner (15 slices, 6.5 mm slice thickness). PET scans of increasing duration (15 sec to 20 min) were acquired over a total time of 85 min post-injection. Arterial blood samples (0.5 ml in volume) were collected every few seconds for the first 3 minutes and at gradually increasing intervals (1 to 10 min) for the remaining time of the imaging study. The vascular and myocardial kinetics of F-18-FBnTP was analyzed using the ROI method.

[8] = F-18-FBnTP myocardial accumulation in pacing model of heart failure (PET); assay type: in vivo, mongrel dog
Experimental: Pacing of the mongrel dog heart at high rate (210 bpm) for a four weeks is a well-established model of heart failure. The advantage of this model is that the cardiomyopathy solely involve apoptosis without stenosis of coronary artery or related ischemia. Therefore, in this model the affect of apoptosis on FBnTP uptake can be dissected.
Methods: Preparation of dog and data acquisition was performed as described above. Mongrel dog was installed with a pacemaker in the rib case and underwent FBnTP PET scan (presented above). Following the baseline scan, the dog_s heart was paced at a rate of 210 bpm for 4 weeks and a second scan was acquired.
FIG. 18 depicts co-registered images before and after pacing. […] Quantitation of FBnTP in the myocardium was performed using region of interest placed on co-registered myocardial images, whose activity was normalized to the injected dose, before and after pacing. An example for ROI placement is illustrated in FIG. 18.

[9] = Stability of fluorination: total bone uptake; assay type: in vivo; details: mice, 5 and 30 min p.i., compared to mice injected with F-18 only; listed as F-18-FBnTP
Experimental: Methods: Mice were injected via the tail vein with 25 μCi of F-18-PhC; 5 and 30 min p.i., the left or right femur bone was removed, and bone radioactivity together with standard (1:100 of injected dose) were counted in a gamma counter. A parallel group of mice was injected with free fluorides (F-18). Three mice of each group were studied at each time point. Radioactivity is represented as percentage of injected dosed (% ID) and total bone uptake was calculated as activity in femur bone ×20.

[10] = five-fold increases in flow rate / high flow rates

Molecule: [99Tc].[C-]#[N+]CC(C)(C)OC.[C-]#[N+]CC(C)(C)OC.[C-]#[N+]CC(C)(C)OC.[C-]#[N+]CC(C)(C)OC.[C-]#[N+]CC(C)(C)OC.[C-]#[N+]CC(C)(C)OC [[^99mTc]MIBI, Tc-99m-sestamibii]
myocardial extraction ([1]; baseline / normal flow): about 60%
myocardial extraction [1, 10]: 40%

Molecule: Thallium 201
myocardial extraction ([1]; baseline / normal flow): about 80%
myocardial extraction [1, 10]: about 60%

Inf/Control [2]: 0.25
Accumulation, Control [2]: 0.29 ± 0.06 % ID/g tissue
Molecule: [18F]CCC[P+](c1ccccc1)(c1ccccc1)c1ccccc1 [[18F]FPTP, [^18F]3-fluoropropyltriphenyl-phosphonium ion]

decrease of the extraction fraction [3]: 39%
Molecule: [11CH3][P+](c1ccccc1)(c1ccccc1)c1ccccc1 [[11C]TPMP, C-11-triphenylmethyl phosphonium]

uptake in tumor relative to healthy gland [4]: 4 times
uptake in tumor relative to inflammation ([4]; FCA inflammation 3 days): 3 times
stable after intravenous injection of the tracer in vivo ([6]; mice, plasma radiochromatograms): more than 30 min
single radio-peak in plasma chromatography, share of total activity ([6]; mouse plasma collected 5, 15 and 30 min p.i., no other peak observed): 97%
washout from the blood pool ([7]; arterial blood samples): rapid washout
time to equilibrium of accumulation in the myocardium ([7]; persisted for the remaining scanning time (85 min)): within a few minutes
Inf/Control [2]: 0.42
Accumulation, Control [2]: 0.76 ± 0.21 % ID/g tissue
total bone uptake [9]: minimal bone uptake
Molecule: [18F]c1ccc(C[P+](c2ccccc2)(c2ccccc2)c2ccccc2)cc1 [[18F]FBnTP, F-18-fluorobenzyl triphenyl phosphonium]
MMP-dependent share of cellular uptake [5]: 86%
Ratio P/B ([8]; Slices 36-37, ROI1): 0.62
Ratio P/B ([8]; Slices 36-37, ROI2): 0.91
Ratio P/B ([8]; Slices 36-37, ROI3): 0.85
Ratio P/B ([8]; Slices 46-49, ROI1): 0.56
Ratio P/B ([8]; Slices 46-49, ROI2): 0.76
Ratio P/B ([8]; Slices 46-49, ROI3): 0.82
decrease in uptake in the inferior wall after pacing ([8]; dog, 210 bpm for 4 weeks, p<0.001): 40-60%

Inf/Control [2]: 1.20 and 2.12
Molecule: OC[C@H]1OC(O)[C@H]([18F])[C@@H](O)[C@@H]1O (some centres unmarked) [[^18F]FDG, reference compound]
Accumulation, Control [2]: 1.05 ± 0.35 % ID/g tissue and 0.68 ± 0.14 % ID/g tissue
